Patent US5512564A, “Tricyclic thiazole and oxazole derivatives and pharmaceutical agents containing them” (priority 1991, dated 1996)

biological target: T1, purified RT from HIV-1 (Human immunodeficiency virus type 1 group M subtype B, UniProt P04585); assay: Inhibition of Reverse Transcriptase (3H-thymidine-5'-triphosphate incorporation, 18mer oligonucleotide primer); assay type: biochemical; conditions: concentration causing 50% inhibition of the RT activity; HIV-1 RT expressed in E. coli
T1 construct: purified RT from HIV-1; made in house; host or cells: E. coli
Protocol: The screening test system comprises the purified RT from HIV-1 which was expressed by genetic engineering methods in E. coli as well as the components of the initiation complex and site complementary 18mer oligonucleotide as the primer. The ^3 H!-thymidine-5'-triphosphate incorporation was measured by counting in a β counter. The IC50 value is given in the following table for the investigated compounds. This value corresponds to that concentration of the test substance which causes a 50% inhibition of the RT activity.

SMILES | IC50
Cc1ccnc(C23SCCN2C(=O)c2cccnc23)c1 (stereo not drawn) [Example 8, 3a-(4-Methyl-Pyridin-2-Yl)-2,3a-Dihydro-1H-3-Thia-4,8a-Diaza-Cyclopenta a!I nden-8-One] | 4.6 µM
O=C1c2cccnc2C2(c3ccccn3)SCCN12 (stereo not drawn) [Example 9, 3a-Pyridin-2-Yl-2,3a-Dihydro-1H-3-Thia-4,8a-Diaza-Cyclopenta a!Inden-8-One] | 23 µM
O=C1c2cccnc2C2(c3ccccc3)SCCN12 (stereo not drawn) [Example 2, 3a-Phenyl-2,3a-Dihydro-1H-3-Thia-4,8a-Diaza-Cyclopenta a!Inden-8-One] | 3.3 µM
O=C1c2ccncc2C2(c3ccccc3)SCCN12 (stereo not drawn) [Example 7, 3a-Phenyl-2,3a-Dihydro-1H-3-Thia-5,8a-Diaza-Cyclopenta a!Inden-8-One] | 17 µM
Cc1cc(C)cc(C23SCCN2C(=O)c2nccnc23)c1 (stereo not drawn) [Example 5, 3a-(3,5-Dimethyl-Phenyl)-2,3a-Dihydro-1H-3-Thia-4,7,8a-Triaza-Cyclopenta a! Inden-8-One] | 40 µM
Cc1cccc(C23SCCN2C(=O)c2cccnc23)c1 (stereo not drawn) [Example 13, 3a-m-Tolyl-2,3a-Dihydro-1H-3-Thia-4,8a-Diaza-Cyclopenta a!Inden-8-One] | 4 µM
Cc1cccc(C23SCCN2C(=O)c2cccnc23)n1 (stereo not drawn) [Example 10, 3a-(6-Methyl-Pyridin-2-Yl)-2,3a-Dihydro-1H-3-Thia-4,8a-Diaza-Cyclopenta a!I nden-8-One] | 6.6 µM
Cc1cc(C)nc(C23SCCN2C(=O)c2cccnc23)c1 (stereo not drawn) [Example 11, 3a-(4,6-Dimethyl-Pyridin-2-Yl)2,3a-Dihydro-1H-3-Thia-4,8a-Diaza-Cyclopenta a!Inden-8-One] | 3.9 µM

test system: not given; assay: not given; conditions: treatment of AIDS; Hirsch, M. S. (1988); cited from earlier work

SMILES | therapeutic range (in words)
Cc1cn([C@H]2C[C@H](N=[N+]=[N-])[C@@H](CO)O2)c(=O)[nH]c1=O [AZT, 3'-azido-3'-deoxythymidine] | very narrow therapeutic range
